Data as given in patent publication US8518952B2, “6 substituted 2-heterocyclylamino pyrazine compounds as CHK-1 inhibitors” (Pfizer Inc., priority 2008, dated 2013).
Like-named read-outs stand apart in the source and are kept apart here.

Legend:
[1] = target: T1, CHK1 (kinase domain) (Homo sapiens, UniProt O14757); assay: CHK1 Ki determination, spectrophotometric coupled (pyruvate kinase/lactate dehydrogenase) assay; type: biochemical; conditions: CHK-1 kinase domain; for Ki: 150 uM ATP, 125 uM Syntide 2; for percent inhibition (where no Ki data is available): inhibitor concentration not given
T1 construct: a solution containing 1 nM of CHK1 (kinase domain)
T1 sequence (O14757 9-265 limits assumed): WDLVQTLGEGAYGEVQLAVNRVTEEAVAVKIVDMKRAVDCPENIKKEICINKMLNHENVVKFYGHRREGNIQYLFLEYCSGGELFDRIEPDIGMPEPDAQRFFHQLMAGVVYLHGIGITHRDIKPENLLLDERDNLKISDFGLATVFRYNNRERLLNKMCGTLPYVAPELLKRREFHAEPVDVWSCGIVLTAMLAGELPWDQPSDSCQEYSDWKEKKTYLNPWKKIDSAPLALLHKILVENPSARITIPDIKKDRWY
Outline: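 Ki values, or % inhibition where no Ki was obtained, come from a tight-binding fit that uses active enzyme concentration and the ATP Km. Rates were followed as NADH loss at 340 nm, with ADP production coupled via pyruvate kinase and lactate dehydrogenase. Reactions with ATP (150 uM) and Syntide 2 (125 uM) were started after the CHK1 kinase domain had stood with inhibitor for 15 min.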

[2] = test system: HeLa cells; assay: Histone H3 (Ser10) phosphorylation ELISA, abrogation of camptothecin-induced G2 arrest (CHK-1 cellular assay); type: cell-based; conditions: HeLa cells, camptothecin 8 hrs, then compound with nocodozole 16 hours, read-out: EC50
Outline: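 HeLa cells, or MiaPaCa-2 where marked, received camptothecin for 8 h, then compound with nocodazole for 16 h. Ser10-phosphorylated histone H3 in lysates was measured by ELISA with a biotinylated antibody, streptavidin-HRP and TMB. EC50 came from four-parameter sigmoid fits.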

F[C@@H]1CCNC[C@@H]1Nc1cncc(-c2cnc3ccccn23)n1 [Example 27, N-[(3S,4R)-4-fluoropiperidin-3-yl]-6-(imidazo[1,2-a]pyridin-3-yl)pyrazin-2-amine]
Ki [1]: 53.9 nM | EC50 ([2]; Homo sapiens, HeLa): 5580 nM

CC(C)c1ccc2ncc(-c3cncc(N[C@@H]4CCCNC4)n3)n2c1 [Example 43, 6-(6-Isopropylimidazo[1,2-a]pyridin-3-yl)-N-[(3R)-piperidin-3-yl]pyrazin-2-amine]
Ki [1]: 6.69 nM | EC50 ([2]; Homo sapiens, HeLa): 64.6 nM

C[C@@H]1CNC[C@@H]1Nc1cncc(-n2cnc3cc(-c4cnn(C)c4)ccc32)n1 [Example 34, 6-[5-(1-methyl-1H-pyrazol-4-yl)-1H-benzimidazol-1-yl]-N-[(3R,4R)-4-methylpyrrolidin-3-yl]pyrazin-2-amine]
Ki [1]: 3.38 nM | EC50 ([2]; Homo sapiens, HeLa): 29 nM

C[C@@H]1CNC[C@@H]1Nc1cncc(-c2cnn3cc(F)ccc23)n1 [Example 202, 6-(6-fluoropyrazolo[1,5-a]pyridin-3-yl)-N-[(3R,4R)-4-methylpyrrolidin-3-yl]pyrazin-2-amine]
Ki [1]: 18.4 nM | EC50 ([2]; Homo sapiens, HeLa): 19.4 nM

CO[C@@H]1CNC[C@@H]1Nc1cncc(-c2cnc3ccccn23)n1 [Example 190, 6-(imidazo[1,2-a]pyridin-3-yl)-N-[(3S,4R)-4-methoxypyrrolidin-3-yl]pyrazin-2-amine]
Ki [1]: 156 nM | EC50 ([2]; Homo sapiens, HeLa): 1320 nM

C[C@H]1NCCC[C@H]1Nc1cncc(-c2cnc3sccn23)n1 [Example 180, 6-(imidazo[2,1-b][1,3]thiazol-5-yl)-N-[(2R,3R)-2-methylpiperidin-3-yl]pyrazin-2-amine]
Ki [1]: 1.5 nM | EC50 ([2]; Homo sapiens, HeLa): ≥ 10000 nM

c1ccn2c(-c3cncc(NC4CC5CNC4C5)n3)cnc2c1 (stereo not drawn) [Example 159, N-[6-(imidazo[1,2-a]pyridin-3-yl)pyrazin-2-yl]-2-azabicyclo[2.2.1]heptan-6-amine]
Ki [1]: 20.8 nM | EC50 ([2]; Homo sapiens, HeLa): 166 nM

Cc1ccc2ncc(-c3cncc(N[C@@H]4CCNC4)n3)n2c1 [Example 50, 6-(6-Methylimidazo[1,2-a]pyridin-3-yl)-N-[(3R)-pyrrolidin-3-yl]pyrazin-2-amine]
Ki [1]: 17.4 nM | EC50 ([2]; Homo sapiens, HeLa): 148 nM

CC(C)c1ccc2ncc(-c3cncc(N[C@@H]4CCNC4)n3)n2c1 [Example 57, 6-(6-Isopropylimidazo[1,2-a]pyridin-3-yl)-N-[(3R)-pyrrolidin-3-yl]pyrazin-2-amine]
Ki [1]: 6.09 nM | EC50 ([2]; Homo sapiens, HeLa): 373 nM

CC(C)c1cn2c(-c3cncc(N[C@@H]4CCCN[C@H]4C)n3)cnc2s1 [Example 169, N-[(2S,3R)-2-methylpiperidin-3-yl]-6-[2-(propan-2-yl)imidazo[2,1-b][1,3]thiazol-5-yl]pyrazin-2-amine]
percent inhibition (where no Ki data is available) [1]: 45.9%^ | EC50 [2]: 1850 nM

F[C@H]1CNC[C@@H]1Nc1cncc(-c2cnc3cc(Cl)ccn23)n1 [Example 65, 6-(7-chloroimidazo[1,2-a]pyridin-3-yl)-N-[(3S,4S)-4-fluoropyrrolidin-3-yl]pyrazin-2-amine]
Ki [1]: 33 nM | EC50 ([2]; Homo sapiens, HeLa): 501 nM

c1ccn2c(-c3cncc(N[C@H]4CCNC4)n3)cnc2c1 [Example 48, 6-Imidazo[1,2-a]pyridin-3-yl-N-[(3S)-pyrrolidin-3-yl]pyrazin-2-amine]
Ki [1]: 165 nM | EC50 ([2]; Homo sapiens, HeLa): 600 nM

CCO[C@H]1CCNC[C@@H]1Nc1cncc(-c2cnc3ccccn23)n1 [Example 35, N-[(3S,4S)-4-ethoxypiperidin-3-yl]-6-(imidazo[1,2-a]pyridin-3-yl)pyrazin-2-amine]
Ki [1]: 3.88 nM | EC50 ([2]; Homo sapiens, HeLa): 40.9 nM

C[C@@H]1CC[C@@H](Nc2cncc(-n3cnc4cc(OCC5(C)COC5)ccc43)n2)CN1 [Example 9, 6-{5-[(3-Methyloxetan-3-yl)methoxy]-1H-benzimidazol-1-yl}-N-[(3R,6R)-6-methylpiperidin-3-yl]pyrazin-2-amine]
Ki [1]: 131 nM | EC50 ([2]; Homo sapiens, HeLa): ≥ 10000 nM

C[C@H]1CNC[C@H]1Nc1cncc(-c2cnc3ccc(F)cn23)n1 [Example 141, 6-(6-fluoroimidazo[1,2-a]pyridin-3-yl)-N-[(3S,4S)-4-methylpyrrolidin-3-yl]pyrazin-2-amine]
Ki [1]: 10 nM | EC50 ([2]; Homo sapiens, HeLa): 77.8 nM

C[C@@H]1NCCC[C@H]1Nc1cncc(-c2cnc3cc(Cl)ccn23)n1 [Example 104, 6-(7-chloroimidazo[1,2-a]pyridin-3-yl)-N-[(2S,3R)-2-methylpiperidin-3-yl]pyrazin-2-amine]
Ki [1]: 36.4 nM | EC50 ([2]; Homo sapiens, HeLa): ≥ 10000 nM

Cc1cn2c(-c3cncc(N[C@@H]4CCCNC4)n3)cnc2s1 [Example 59, 6-(2-Methylimidazo[2,1-b][1,3]thiazol-5-yl)-N-[(3R)-piperidin-3-yl]pyrazin-2-amine]
Ki [1]: 3 nM | EC50 ([2]; Homo sapiens, HeLa): 9.09 nM

CC(C)c1cn2c(-c3cncc(N[C@@H]4CCCN[C@@H]4C)n3)cnc2s1 [Example 165, N-[(2R,3R)-2-methylpiperidin-3-yl]-6-[2-(propan-2-yl)imidazo[2,1-b][1,3]thiazol-5-yl]pyrazin-2-amine]
Ki [1]: 1.09 nM | EC50 [2]: 123 nM

c1cnc2c(-c3cncc(N[C@@H]4CCCNC4)n3)cnn2c1 [Example 23, N-[(3R)-piperidin-3-yl]-6-pyrazolo[1,5-a]pyrimidin-3-ylpyrazin-2-amine]
percent inhibition (where no Ki data is available) [1]: 36.1%^ | EC50 ([2]; Homo sapiens): ≥ 10000 nM

COc1ccc2ncn(-c3cncc(N[C@@H]4CCNC4)n3)c2c1 [Example 216, 6-(6-methoxy-1H-benzimidazol-1-yl)-N-[(3R)-pyrrolidin-3-yl]pyrazin-2-amine]
Ki [1]: 15.5 nM | EC50 ([2]; Homo sapiens, HeLa): 35.8 nM

Fc1ccc2ncc(-c3cncc(N[C@H]4CNC[C@@H]4F)n3)n2c1 [Example 92, 6-(6-fluoroimidazo[1,2-a]pyridin-3-yl)-N-[(3S,4S)-4-fluoropyrrolidin-3-yl]pyrazin-2-amine]
Ki [1]: 87.5 nM | EC50 ([2]; Homo sapiens, HeLa): ≥ 10000 nM

CC(C)c1cn2c(-c3cncc(N[C@@H]4CCCN[C@@H]4C)n3)cnc2s1 [Example 111, 6-(2-isopropylimidazo[2,1-b][1,3]thiazol-5-yl)-N-[(2R,3R)-2-methylpiperidin-3-yl]pyrazin-2-amine]
Ki [1]: 3.63 nM | EC50 [2]: 22.4 nM

CC(C)[C@@H]1CNC[C@@H]1Nc1cncc(-c2cnc3ccccn23)n1 [Example 194, 6-(imidazo[1,2-a]pyridin-3-yl)-N-[(3R,4R)-4-(propan-2-yl)pyrrolidin-3-yl]pyrazin-2-amine]
Ki [1]: 13.6 nM | EC50 ([2]; Homo sapiens, HeLa): 7.76 nM

CC(C)Oc1ccc2c(c1)ncn2-c1cncc(N[C@@H]2CCCNC2)n1 [Example 215, N-[(3R)-piperidin-3-yl]-6-[5-(propan-2-yloxy)-1H-benzimidazol-1-yl]pyrazin-2-amine]
Ki [1]: 6.78 nM | EC50 ([2]; Homo sapiens, HeLa): 35.8 nM

CCc1ccn2c(-c3cncc(N[C@@H]4CCCNC4)n3)cnc2c1 [Example 42, 6-(7-Ethylimidazo[1,2-a]pyridin-3-yl)-N-[(3R)-piperidin-3-yl]pyrazin-2-amine]
Ki [1]: 7 nM | EC50 ([2]; Homo sapiens, HeLa): 29.3 nM

CC(C)c1cn2c(-c3cncc(N[C@@H]4C[C@@H]5CN[C@H]4C5)n3)cnc2s1 [Example 127, (1S,4R,6R)-N-[6-(2-isopropylimidazo[2,1-b][1,3]thiazol-5-yl)pyrazin-2-yl]-2-azabicyclo[2.2.1]heptan-6-amine]
Ki [1]: 8.91 nM | EC50 ([2]; Homo sapiens, HeLa): 1060 nM

Cc1cn2c(-c3cncc(N[C@H]4CCCN[C@H]4C)n3)cnc2s1 [Example 175, 6-(2-methylimidazo[2,1-b][1,3]thiazol-5-yl)-N-[(2S,3S)-2-methylpiperidin-3-yl]pyrazin-2-amine]
Ki [1]: 13.7 nM | EC50 ([2]; Homo sapiens, HeLa): 197 nM

FC[C@@H]1C[C@@H](Nc2cncc(-c3cnc4cc(C(F)(F)F)ccn34)n2)CN1 [Example 78, N-[(3R,5S)-5-(fluoromethyl)pyrrolidin-3-yl]-6-[7-(trifluoromethyl)imidazo[1,2-a]pyridin-3-yl]pyrazin-2-amine]
Ki [1]: 37.1 nM | EC50 ([2]; Homo sapiens, HeLa): 3560 nM

CC1(Nc2cncc(-c3cnc4n3CCCC4)n2)CCNC1 (stereo not drawn) [Example 98, N-(3-methylpyrrolidin-3-yl)-6-(5,6,7,8-tetrahydroimidazo[1,2-a]pyridin-3-yl)pyrazin-2-amine]
Ki [1]: 1000 nM | EC50 ([2]; Homo sapiens, HeLa): ≥ 10000 nM

C[C@H]1CC[C@@H](Nc2cncc(-c3cnc4ccc(F)cn34)n2)CN1 [Example 93, 6-(6-fluoroimidazo[1,2-a]pyridin-3-yl)-N-[(3R,6S)-6-methylpiperidin-3-yl]pyrazin-2-amine]
Ki [1]: 89 nM | EC50 ([2]; Homo sapiens, HeLa): 3330 nM

CC(C)(C)CCOc1ccn2c(-c3cncc(N[C@@H]4CCCNC4)n3)cnc2c1 [Example 148, 6-[7-(3,3-dimethylbutoxy)imidazo[1,2-a]pyridin-3-yl]-N-[(3R)-piperidin-3-yl]pyrazin-2-amine]
percent inhibition (where no Ki data is available) [1]: 104%^ | EC50 ([2]; Homo sapiens, HeLa): ≥ 10000 nM

Fc1ccc2c(-c3cncc(N[C@@H]4CCCNC4)n3)cnn2c1 [Example 198, 6-(6-fluoropyrazolo[1,5-a]pyridin-3-yl)-N-[(3R)-piperidin-3-yl]pyrazin-2-amine]
Ki [1]: 1.09 nM | EC50 ([2]; Homo sapiens, HeLa): 23.4 nM

FC(F)[C@@H]1C[C@@H](Nc2cncc(-c3cnn4cc(Cl)ccc34)n2)CN1 [Example 100, 6-(6-chloropyrazolo[1,5-a]pyridin-3-yl)-N-[(3R,5S)-5-(difluoromethyl)pyrrolidin-3-yl]pyrazin-2-amine]
Ki [1]: 14.6 nM | EC50 ([2]; Homo sapiens, HeLa): 3530 nM
